# Measurements reported in patent publication US20120238554A1, “SALTS OF POTASSIUM ATP CHANNEL OPENERS AND USES THEREOF” (priority 2007, published 2012).
# What was measured:
# [1] = tested on: cardiomyocytes from the infarct border zone; conditions: cardiomyocytes from the infarct border zone (74 ms without, sham 41 ms); cited from earlier work
# [2] = tested on: barbital-anesthetized open-chest pigs; conditions: 3.5 mg/kg IV, 30 min occlusion, 3 h reflow, n=7; cited from earlier work
# obese subjects = assay: Single 200 mg dose study: fasting glucose, insulin, NEFA, serum Na, K, creatinine; conditions: either formulation
# Description: Three exploratory endpoints were evaluated in the study. Blood glucose, insulin and non-esterified fatty acids (NEFA) were measured prior to dosing and at 1, 3, 6, 9, 12, 24, and 48 hours post dosing. Blood glucose and insulin levels were also assessed at end of study. Data collected at times 1, 3, 24, and 48 hours after dose administration were obtained under fasting conditions. The remaining data points were post-prandial measures.
# [3] = tested on: patients with elevated fasting triglycerides; assay: Diazoxide treatment of hypertriglyceridemia, 7 to 49 days: fasting triglycerides, LDL-cholesterol; assay type: in vivo, human; conditions: for fasting triglycerides reduced: titrated patients
# Description: All patients were dosed once per day for an uninterrupted period of time.
# Patients were placed on a low fat diet at the start of treatment which continued to the end of treatment.
# Each subject's baseline circulating triglyceride level was calculated as the average of two measurements of fasting triglycerides taken approximately two weeks apart, with the second taken predose on the first day of treatment.
# [4] = tested on: person with pulmonary hypertension; conditions: oral diazoxide over six years; cited from earlier work
# [5] = Slurry studies of inter-conversion of the solid form; conditions: room temperature, no light, 14 days; water, isopropyl alcohol, dichloromethane, toluene
# [6] = Solubility in 100 mM phosphate buffer with titration, 18 h slurry (Table 15); assay type: physicochemical; conditions: thermodynamic from solid, ambient
# Description: Each determination was carried out in duplicate, slurrying each sample in a 100 mM phosphate buffer solution, pH 7.00. […] After this time all samples were centrifuged, and the supernatant was diluted with mobile phase (MeCN/Water.).
# [7] = Moisture sorption analysis; assay type: physicochemical
# Description: Moisture Sorption Analysis was performed with a Hiden IGAsorp Moisture Sorption Instrument, Samples were first dried at 0% relative humidity at 25° C. until an equilibrium weight was reached, or for a maximum of 4 hours. Samples were then subjected to an isothermal (25° C.) scan from 10-90% relative humidity in steps of 10%. The samples were allowed to equilibrate to an asymptotic weight at each point for a maximum of 4 hours. Following absorption, a desorption scan from […] relative humidity (at 25° C.) was run in steps of −10%, again allowing a maximum of 4 hours for the samples to equilibrate. The resulting samples after desorption were dried at 80° C. for two hours and analyzed by XRPD.
# [8] = Form conversion and degradation under thermal stress (60° C.); conditions: 60° C., closed, protected from light, 7 and 14 days
# Description: Studies were also conducted to evaluate the likelihood for conversion and degradation under thermal stress.
# [9] = tested on: patients with primary pulmonary hypertension; conditions: cited from earlier work
# [10] = tested on: Zucker Diabetic Fatty (ZDF) rats; conditions: 150 mg/kg/day, 8 weeks; cited from earlier work
compound,measurement,setting,value
"CC1=NS(=O)(=O)c2cc(Cl)ccc2N1 [diazoxide, 7-chloro-3-methyl-2H-1,2,4-benzothiadiazine 1,1 dioxide]",action potential duration,[1],42 ms
same,Infarct size (percentage of the area at risk),[2],14.6±7.4%
same,fasting glucose,obese subjects; 24 or 48 hours after dose administration,no evidence for a significant increase in fasting glucose
same,fasting insulin,obese subjects; after the single 200 mg dose,no evidence for a reduction in fasting insulin
same,reductions in fasting triglycerides,"[3]; 100 mg per day diazoxide equivalent as Diazoxide Choline Controlled-Release Tablets, 7 days",38%
same,reductions in fasting triglycerides,"[3]; 100 mg per day diazoxide equivalent, 14 days",18%
same,reductions in fasting triglycerides,"[3]; 150 mg for 5 days then 300 mg for 9 days, at 7 and 14 days",50%
same,reductions in fasting triglycerides,"[3]; 200 mg per day diazoxide equivalent, 7 days",23%
same,reductions in fasting triglycerides,"[3]; 200 mg per day diazoxide equivalent, 14 days",20%
same,reductions in fasting triglycerides,"[3]; 300 mg per day diazoxide equivalent, 7 days",18%
same,reductions in fasting triglycerides,"[3]; 300 mg per day diazoxide equivalent, 14 days",29%
same,reductions in fasting triglycerides,"[3]; 400 mg per day diazoxide equivalent, 7 days",50%
same,rise in LDL-cholesterol,"[3]; Patient 13, day 21",6.7%
same,rise in LDL-cholesterol,"[3]; Patient 13, day 42",11%
same,reductions in LDL-cholesterol,[3]; patient 8,−8.6%
same,reductions in LDL-cholesterol,[3]; patient 9,−15.3%
same,fasting triglycerides reduced,[3]; end of treatment with 150 mg,21%
same,fasting triglycerides reduced,[3]; end of treatment with 200 mg,31%
same,fasting triglycerides reduced,[3]; end of treatment with 250 mg,38%
same,fasting triglycerides reduced,[3]; end of treatment with 300 mg,38%
same,fasting triglycerides reduced,[3]; end of treatment with 350 mg,49%
same,pulmonary arterial pressure,[4],reduced to normal levels
same,inter-conversion of the solid form in slurry,[5],did not convert to alternate crystal forms
same,solubility at 18 h,"[6]; pH 6.9, aqueous buffer, pH after slurry 6.90",70 µg/mL
same,solubility at 18 h,"[6]; pH 7.31, aqueous buffer, pH after slurry 7.31",70 µg/mL
same,crystalline form after moisture sorption/desorption (XRPD),[7],same crystalline form
same,hydrate formation (hysteresis upon desorption),[7]; 25° C.,does not form a stable hydrate
same,Moisture Sorption (hygroscopicity),"[7]; 25° C., listed as free form diazoxide",non-hygroscopic
same,water absorbed,"[7]; 60% RH, 25° C.",approximately 0.04 wt %
same,water absorbed,"[7]; 90% RH, 25° C.",~0.20 wt %
same,"form conversion and degradation under thermal stress (XRPD, DSC)",[8],no conversion or degradation
same,change in pulmonary artery pressure,"[9]; injected into the pulmonary artery, nine patients",no significant change
same,patients unable to tolerate the drug,[9]; oral diazoxide given to seven patients,Five
same,"hepatic triglycerides, long chain acyl-CoA and cholesterol contents",[10],decreased
